According to patent US20250135038A1, “COMPOSITIONS AND METHODS FOR IMPROVED TREATMENT OF POMPE DISEASE” (Astellas Gene Therapies, Inc., priority 2022, published 2025):

Test system: liver transaminases (ALT, AST) and bilirubin
Assay: Longitudinal monitoring of liver transaminases (ALT, AST) and bilirubin, relative to prednisolone prophylaxis
Format: in vivo, human
Text: Abbreviations: L, liter; U/L, units per liter; […], upper limit of normal.
Liver transaminases and bilirubin were also monitored over time for patients 2002, 2003, and 2009 (FIG. 11-13).

| Structure (SMILES) | Prophylaxis of liver syndromes associated with GAA gene therapy (combination of the viral vector and an anti-transaminitis agent (e.g., prednisolone), conclusion of Example 1) | Response of the rise in transaminases to re-initiation of corticosteroid treatment (participant 2001, after AAV vector 3×10^13 vg/kg) | Response of transaminitis to steroid schedule (participant 2003, after AAV vector 6×10^13 vg/kg) | Response of transaminitis to steroid schedule (participant 2009, after AAV vector 6×10^13 vg/kg) | Liver function parameters (Patient 2002 (3×10^13 vg/kg), reduced dose of prophylactic prednisone, throughout steroid tapering and >1 year follow up) |
| --- | --- | --- | --- | --- | --- |
| C[C@]12C=CC(=O)C=C1CC[C@@H]1[C@@H]2[C@@H](O)C[C@@]2(C)[C@H]1CC[C@]2(O)C(=O)CO [prednisolone] | can serve as a prophylactic treatment for liver syndromes | responded well | responsive to a slowing in the steroid tapering schedule and a small increment in steroid dose | responsive to a slowing in the steroid tapering schedule | – |
| C[C@]12C=CC(=O)C=C1CC[C@@H]1[C@@H]2C(=O)C[C@@]2(C)[C@H]1CC[C@]2(O)C(=O)CO [prednisone] | – | – | – | – | remained within the normal range |
